Reference: ChEMBL document CHEMBL1201862, “PubChem BioAssay data set” (2004)
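Test compounds were applied to cells in 96-well plates for 48 hours at 5 doses. GI50 = concentration required for 50% inhibition of growth.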 Calls of active or inactive are those of the source. No stated cut-off is given here; in the data, active = GI50 up to about 1.1 µM and inactive = higher.

Legend:
Test in all cases: DTP human tumour cell line panel, 48 h
DU-145 = test system: DU-145
OVCAR-3 = test system: OVCAR-3
UACC-62 = test system: UACC-62
KM12 = test system: KM12
SNB-75 = test system: SNB-75
RPMI-8226 = test system: RPMI-8226
SK-MEL-2 = test system: SK-MEL-2
SF-268 = test system: SF-268
HCT-116 = test system: HCT-116
SF-539 = test system: SF-539
HCT-15 = test system: HCT-15
UO-31 = test system: UO-31
SR = test system: SR
OVCAR-4 = test system: OVCAR-4
M14 = test system: M14
COLO 205 = test system: COLO 205
Malme-3M = test system: Malme-3M
SK-MEL-5 = test system: SK-MEL-5
U-251 = test system: U-251
MCF7 = test system: MCF7
HOP-62 = test system: HOP-62
EKVX = test system: EKVX
A498 = test system: A498
RXF 393 = test system: RXF 393
SK-OV-3 = test system: SK-OV-3
A549 = test system: A549
SW-620 = test system: SW-620
SNB-19 = test system: SNB-19
T47D = test system: T47D
IGROV-1 = test system: IGROV-1
MOLT-4 = test system: MOLT-4
LOX IMVI = test system: LOX IMVI
SK-MEL-28 = test system: SK-MEL-28
NCI-H522 = test system: NCI-H522
786-0 = test system: 786-0
UACC-257 = test system: UACC-257
PC-3 = test system: PC-3
OVCAR-5 = test system: OVCAR-5
K562 = test system: K562
CCRF-CEM = test system: CCRF-CEM
TK-10 = test system: TK-10
Hs-578T = test system: Hs-578T
MDA-N = test system: MDA-N
MDA-MB-231 = test system: MDA-MB-231
ACHN = test system: ACHN
NCI-H23 = test system: NCI-H23
HL-60 = test system: HL-60
HOP-92 = test system: HOP-92
CAKI-1 = test system: CAKI-1
HCC 2998 = test system: HCC 2998
NCI-H460 = test system: NCI-H460
SN12C = test system: SN12C
SF-295 = test system: SF-295
MDA-MB-435 = test system: MDA-MB-435
OVCAR-8 = test system: OVCAR-8
NCI/ADR-RES = test system: NCI/ADR-RES
HT-29 = test system: HT-29
NCI-H226 = test system: NCI-H226

In the case of `CCN(CC)C(=O)C1=C(C)NC(C)=C(C(=O)N(CC)CC)C1`, the GI50 (DU-145) was > 100 µM (inactive), the GI50 (OVCAR-3) was > 100 µM (inactive) and the GI50 (UACC-62) was > 100 µM (inactive). The GI50 (KM12) was > 100 µM (inactive), the GI50 (SNB-75) was 14.5 µM (inactive) and the GI50 (RPMI-8226) was > 100 µM (inactive). For the same molecule, the GI50 (SK-MEL-2) was > 100 µM (inactive), the GI50 (SF-268) was 53 µM (inactive) and the GI50 (HCT-116) was > 100 µM (inactive). For the same molecule, the GI50 (SF-539) was > 100 µM (inactive), the GI50 (HCT-15) was over 100 µM and the GI50 (UO-31) was 81.1 µM (inactive). For the same molecule, the GI50 (SR) was > 100 µM (inactive), the GI50 (OVCAR-4) was > 100 µM (inactive) and the GI50 (M14) was > 100 µM (inactive). The GI50 (COLO 205) was > 100 µM (inactive), the GI50 (Malme-3M) was > 100 µM (inactive) and the GI50 (SK-MEL-5) was > 100 µM (inactive). The GI50 (U-251) was > 100 µM (inactive), the GI50 (MCF7) was > 100 µM (inactive) and the GI50 (HOP-62) was > 100 µM (inactive). For the same molecule, the GI50 (EKVX) was > 100 µM (inactive), the GI50 (A498) was > 100 µM (inactive) and the GI50 (RXF 393) was > 100 µM (inactive). The GI50 (SK-OV-3) was > 100 µM (inactive), the GI50 (A549) was > 100 µM (inactive) and the GI50 (SW-620) was > 100 µM (inactive). The GI50 (SNB-19) was > 100 µM (inactive), the GI50 (T47D) was 58.1 µM (inactive) and the GI50 (IGROV-1) was > 100 µM (inactive). The GI50 (MOLT-4) was > 100 µM (inactive), the GI50 (LOX IMVI) was > 100 µM (inactive) and the GI50 (SK-MEL-28) was > 100 µM (inactive). For the same molecule, the GI50 (NCI-H522) was > 100 µM (inactive), the GI50 (786-0) was > 100 µM (inactive) and the GI50 (UACC-257) was > 100 µM (inactive). For the same molecule, the GI50 (PC-3) was > 100 µM (inactive), the GI50 (OVCAR-5) was > 100 µM (inactive) and the GI50 (K562) was 41.4 µM (inactive). For the same molecule, the GI50 (CCRF-CEM) was > 100 µM (inactive), the GI50 (TK-10) was > 100 µM (inactive) and the GI50 (Hs-578T) was 44.7 µM (inactive). The GI50 (MDA-N) was > 100 µM (inactive), the GI50 (MDA-MB-231) was 39.4 µM (inactive) and the GI50 (ACHN) was > 100 µM (inactive). For the same molecule, the GI50 (NCI-H23) was > 100 µM (inactive), the GI50 (HL-60) was > 100 µM (inactive) and the GI50 (HOP-92) was > 100 µM (inactive). The GI50 (CAKI-1) was > 100 µM (inactive), the GI50 (HCC 2998) was > 100 µM (inactive) and the GI50 (NCI-H460) was > 100 µM (inactive). For the same molecule, the GI50 (SN12C) was > 100 µM (inactive), the GI50 (SF-295) was > 100 µM (inactive) and the GI50 (MDA-MB-435) was 81.1 µM (inactive).
`OC(c1ccsc1)c1cc2ccccc2s1` (stereo not given) was tested, and the GI50 (DU-145) was > 10 µM (inactive), the GI50 (OVCAR-3) was > 10 µM (inactive) and the GI50 (UACC-62) was > 10 µM (inactive). For the same molecule, the GI50 (KM12) was > 10 µM (inactive), the GI50 (SNB-75) was > 10 µM (inactive) and the GI50 (RPMI-8226) was > 10 µM (inactive). For the same molecule, the GI50 (SK-MEL-2) was > 10 µM (inactive), the GI50 (SF-268) was > 10 µM (inactive) and the GI50 (HCT-116) was > 10 µM (inactive). For the same molecule, the GI50 (SF-539) was > 10 µM (inactive), the GI50 (HCT-15) was over 10 µM and the GI50 (UO-31) was > 10 µM (inactive). The GI50 (SR) was > 10 µM (inactive), the GI50 (OVCAR-4) was > 10 µM (inactive) and the GI50 (M14) was > 10 µM (inactive). For the same molecule, the GI50 (OVCAR-8) was > 10 µM (inactive), the GI50 (COLO 205) was > 10 µM (inactive) and the GI50 (SK-MEL-5) was > 10 µM (inactive). The GI50 (U-251) was > 10 µM (inactive), the GI50 (MCF7) was > 10 µM (inactive) and the GI50 (HOP-62) was > 10 µM (inactive). For the same molecule, the GI50 (EKVX) was > 10 µM (inactive), the GI50 (NCI/ADR-RES) was > 10 µM (inactive) and the GI50 (RXF 393) was > 10 µM (inactive). For the same molecule, the GI50 (SK-OV-3) was > 10 µM (inactive), the GI50 (A549) was > 10 µM (inactive) and the GI50 (SW-620) was > 10 µM (inactive). For the same molecule, the GI50 (SNB-19) was > 10 µM (inactive), the GI50 (T47D) was > 10 µM (inactive) and the GI50 (IGROV-1) was > 10 µM (inactive). The GI50 (MOLT-4) was > 10 µM (inactive), the GI50 (LOX IMVI) was > 10 µM (inactive) and the GI50 (SK-MEL-28) was > 10 µM (inactive). The GI50 (NCI-H522) was > 10 µM (inactive), the GI50 (786-0) was > 10 µM (inactive) and the GI50 (UACC-257) was > 10 µM (inactive). For the same molecule, the GI50 (PC-3) was > 10 µM (inactive), the GI50 (OVCAR-5) was > 10 µM (inactive) and the GI50 (K562) was > 10 µM (inactive). For the same molecule, the GI50 (CCRF-CEM) was > 10 µM (inactive), the GI50 (TK-10) was > 10 µM (inactive) and the GI50 (Hs-578T) was > 10 µM (inactive). The GI50 (MDA-N) was > 10 µM (inactive), the GI50 (HT-29) was > 10 µM (inactive) and the GI50 (MDA-MB-231) was > 10 µM (inactive). The GI50 (ACHN) was > 10 µM (inactive), the GI50 (NCI-H226) was > 10 µM (inactive) and the GI50 (NCI-H23) was > 10 µM (inactive). The GI50 (HL-60) was > 10 µM (inactive), the GI50 (HOP-92) was > 10 µM (inactive) and the GI50 (CAKI-1) was > 10 µM (inactive). The GI50 (HCC 2998) was > 10 µM (inactive), the GI50 (NCI-H460) was > 10 µM (inactive) and the GI50 (SN12C) was > 10 µM (inactive). For the same molecule, the GI50 (SF-295) was > 10 µM (inactive) and the GI50 (MDA-MB-435) was > 10 µM (inactive).
